The source of these data is paper PMC6149995 (2017).

Test [1] has as its system 22AG (DNA, G4) AGGGTTAGGGTTAGGGTTAGGG
The test is described as follows: fluorescence titration (ligand quenching, Hill fit). The settings on record: 10 mM lithium cacodylate pH 7.2, r.t., 0.5 µM ligand, DNA titrated.

The test system of test [2] is FmycT (DNA, G4) TTGAGGGTGGGTAGGGTGGGTAA
The test is described as follows: FRET melting. The conditions noted are these: 1 mM K+, 99 mM Li+; 10 mM lithium cacodylate pH 7.2; 1 µM ligand, 0.2 µM DNA; limit stated for all other cases.

The test system of test [3] is ds26 (DNA, duplex) CAATCGGATCGAATTCGATCCGATTG
Kind of test: fluorescence titration. The settings on record: K+ buffer; insignificant fluorescence reduction, fit unsuccessful; 0.5 µM ligand.

The test system of test [4] is 22AG (DNA, G4) AGGGTTAGGGTTAGGGTTAGGG
The test is described as follows: circular dichroism titration. The settings on record: 10 mM lithium cacodylate pH 7.2, 21 °C, 3 µM DNA.

For test [5], the system named is Myc2345-Pu22 (DNA, G4) TGAGGGTGGGTAGGGTGGGTAA
Kind of test: fluorescence titration (ligand quenching, Hill fit). The settings on record: 100 mM K+; 10 mM lithium cacodylate pH 7.2, r.t., 0.5 µM ligand, DNA titrated.

Test [6] deals with F21T (DNA, G4) GGGTTAGGGTTAGGGTTAGGG
The test is described as follows: FRET melting. The conditions noted are these: 90 mM Li+, 10 mM lithium cacodylate pH 7.2, 1 µM ligand, 0.2 µM DNA, limit stated for all other cases.

[7] abbreviates: 100 mM K+, 0-5 equiv ligand, conversion to antiparallel.
Setting [8] is: 100 mM Na+, slightly reduced helicity, antiparallel kept.

On to `c1ccc(-c2cnc(-c3cccc(-c4cnc(-c5cccc(-c6cnc(-c7ccccn7)o6)n5)o4)n3)o2)nc1`, for which the KD entry was “(5.0 ± 0.3) × 10^−7 M^−1” in test [1] (100 mM K+), “(0.6 ± 0.0) × 10^−7 M^−1” in test [1] (100 mM Na+) and “(1.9 ± 0.1) × 10^−7 M^−1” in test [5]. The ΔTm in test [2] was under 3 °C. Further, the binding entry in test [3] is “no”; in test [4] (setting [7]), “yes”; in test [4] (setting [8]), “yes”.
In the case of `c1ccc(-c2cnc(-c3cccc(-c4cnc(-c5cccc(-c6cnco6)n5)o4)n3)o2)nc1`, the KD entry is given as “(2.2 ± 0.1) × 10^−7 M^−1” in test [1] (100 mM K+), “(0.8 ± 0.1) × 10^−7 M^−1” in test [1] (100 mM Na+) and “(1.7 ± 0.1) × 10^−7 M^−1” in test [5]. Further, the ΔTm in test [2] was under 3 °C. Moreover, the figures for the binding result in test [3], in test [4] (setting [7]) and in test [4] (setting [8]) were “no”, “yes” and “yes”, respectively.
In the case of `c1ccc(-c2cnc(-c3cccc(-c4cnc(-c5ccccn5)o4)n3)o2)nc1`, the KD entry is “(3.2 ± 0.1) × 10^−7 M^−1” in test [1] (100 mM K+), “(7.2 ± 0.8) × 10^−7 M^−1” in test [1] (100 mM Na+) and “(4.8 ± 0.3) × 10^−7 M^−1” in test [5]. The ΔTm in test [2], in test [6] (10 mM K+) and in test [6] (10 mM Na+) was under 3 °C each time. In addition, the binding result is “no” in test [3]; “yes” in test [4] (100 mM K+, needs more equivalents to rearrange); “yes” in test [4] (setting [8]).
